Where two headings read alike, the source gives them in different places.
Legend:
Format in all cases: cell-based
[1] = target: T1, NR2F6 (Homo sapiens, UniProt P10588); assay: NR2F6 agonist screening, Firefly signal cmpd/DMSO
T1 construct: expressed in transfected cells; also transient transfection
T1 sequence (P10588 1-404): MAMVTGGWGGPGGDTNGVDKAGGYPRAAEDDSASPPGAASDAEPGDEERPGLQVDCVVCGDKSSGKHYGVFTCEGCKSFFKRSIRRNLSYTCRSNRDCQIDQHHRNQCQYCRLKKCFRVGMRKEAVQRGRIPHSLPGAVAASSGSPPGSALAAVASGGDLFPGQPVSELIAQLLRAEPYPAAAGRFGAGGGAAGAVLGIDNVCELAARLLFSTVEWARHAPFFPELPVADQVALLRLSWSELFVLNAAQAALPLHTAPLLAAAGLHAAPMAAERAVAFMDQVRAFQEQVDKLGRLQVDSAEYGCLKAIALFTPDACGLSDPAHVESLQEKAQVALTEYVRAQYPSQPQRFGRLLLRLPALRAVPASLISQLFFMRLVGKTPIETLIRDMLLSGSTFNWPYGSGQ

[2] = test system: HEK293 pGL4; assay: Firefly_pGL signal, cmpd/DMSO (pGL4 control cells); conditions: Homo sapiens
[3] = target: T2, NR2F6 LBD (Homo sapiens, UniProt P10588); assay: NR2F6 LBD transient transfection; conditions: LBD
T2 construct: expressed in transfected cells
T2 sequence (P10588 165-393 limits assumed): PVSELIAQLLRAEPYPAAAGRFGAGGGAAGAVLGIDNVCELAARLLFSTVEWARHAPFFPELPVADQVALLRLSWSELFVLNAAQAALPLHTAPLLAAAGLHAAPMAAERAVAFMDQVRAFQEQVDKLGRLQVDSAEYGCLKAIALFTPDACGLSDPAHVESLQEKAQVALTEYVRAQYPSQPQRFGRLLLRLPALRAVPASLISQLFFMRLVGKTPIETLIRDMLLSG
How it was run: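 LBD-transfected cells treated at 40, 10, 2 and 0.5 μM (4 replicates); cytotoxicity measured in parallel, normalized to DMSO (0%) and zero signal (100%). Higher concentrations excluded where signal loss reflected toxicity.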

[4] = test system: Renilla; assay: Renilla signal in NR2F6 agonist screening, cmpd/DMSO; conditions: Renilla, F4
[5] = read-out: Renilla, F4, cmpd/DMSO (mean)
[6] = 1% FBS, read-out: Renilla, F4, 1% FBS, cmpd/DMSO (mean)
[7] = 10% FBS, read-out: Renilla, F4, 10% FBS, cmpd/DMSO (mean)

CC(C)N[C@H]1CS(=O)(=O)C[C@@H]1S(=O)(=O)c1ccc(Cl)cc1 [Compound D118]
Firefly F4, cmpd/DMSO (mean) ([1]; 0.5 uM): 1.6 | Firefly F4, cmpd/DMSO (mean) ([1]; 2 uM): 1.6 | Firefly F4, cmpd/DMSO (mean) ([1]; 10 uM): 6.2 | Firefly F4, cmpd/DMSO (mean) ([1]; 40 uM): 2.4 | F4, Firefly/Renilla for S/B(F4) > 3 ([1]; 1% FBS, 10 uM): 3.2 | Firefly, F4/pGL4 for S/B(F4) > 3 ([1]; 1% FBS, 10 uM): 2.5 | F4, Firefly/Renilla for S/B(F4) > 3 ([1]; 10% FBS, 10 uM): 2.1 | Firefly, F4/pGL4 for S/B(F4) > 3 ([1]; 10% FBS, 10 uM): 1.8 | F4, Firefly/Renilla for S/B(F4) > 3 ([1]; 10% FBS, 40 uM): 2.8 | Firefly, F4/pGL4 for S/B(F4) > 3 ([1]; 10% FBS, 40 uM): 1.8 | Firefly, F4, 1% FBS, cmpd/DMSO (mean) ([1]; 1% FBS, 0.5 uM): 1.1 | Firefly, F4, 1% FBS, cmpd/DMSO (mean) ([1]; 1% FBS, 2 uM): 1.4 | Firefly, F4, 1% FBS, cmpd/DMSO (mean) ([1]; 1% FBS, 10 uM): 5.2 | Firefly, F4, 1% FBS, cmpd/DMSO (mean) ([1]; 1% FBS, 40 uM): 0.5 | Firefly, F4, 10% FBS, cmpd/DMSO (mean) ([1]; 10% FBS, 0.5 uM): 1.2 | Firefly, F4, 10% FBS, cmpd/DMSO (mean) ([1]; 10% FBS, 2 uM): 1.3 | Firefly, F4, 10% FBS, cmpd/DMSO (mean) ([1]; 10% FBS, 10 uM): 5.1 | Firefly, F4, 10% FBS, cmpd/DMSO (mean) ([1]; 10% FBS, 40 uM): 15 | fold induction at 0.5 µM ([2]; HEK293, 0.5 uM, pGL4, read-out: Firefly pGL4, cmpd/DMSO (mean)): 1.2 | fold induction at 2 µM ([2]; HEK293, 2 uM, pGL4, read-out: Firefly pGL4, cmpd/DMSO (mean)): 1.5 | fold induction at 10 µM ([2]; HEK293, 10 uM, pGL4, read-out: Firefly pGL4, cmpd/DMSO (mean)): 4.8 | fold induction at 40 µM ([2]; HEK293, 40 uM, pGL4, read-out: Firefly pGL4, cmpd/DMSO (mean)): 0.4 | fold induction at 0.5 µM ([2]; HEK293, pGL4, 1% FBS, 0.5 uM, read-out: Firefly, pGL4, 1% FBS, cmpd/DMSO (mean)): 0.9 | fold induction at 2 µM ([2]; HEK293, pGL4, 1% FBS, 2 uM, read-out: Firefly, pGL4, 1% FBS, cmpd/DMSO (mean)): 1.2 | fold induction at 10 µM ([2]; HEK293, pGL4, 1% FBS, 10 uM, read-out: Firefly, pGL4, 1% FBS, cmpd/DMSO (mean)): 2.1 | fold induction at 40 µM ([2]; HEK293, pGL4, 1% FBS, 40 uM, read-out: Firefly, pGL4, 1% FBS, cmpd/DMSO (mean)): 0.9 | fold induction at 0.5 µM ([2]; HEK293, pGL4, 10% FBS, 0.5 uM, read-out: Firefly, pGL4, 10% FBS, cmpd/DMSO (mean)): 1.2 | fold induction at 2 µM ([2]; HEK293, pGL4, 10% FBS, 2 uM, read-out: Firefly, pGL4, 10% FBS, cmpd/DMSO (mean)): 1.2 | fold induction at 10 µM ([2]; HEK293, pGL4, 10% FBS, 10 uM, read-out: Firefly, pGL4, 10% FBS, cmpd/DMSO (mean)): 2.9 | fold induction at 40 µM ([2]; HEK293, pGL4, 10% FBS, 40 uM, read-out: Firefly, pGL4, 10% FBS, cmpd/DMSO (mean)): 8.1 | Firefly LBD, cmpd/DMSO (mean) ([3]; 0.5 uM): 1.2 | Firefly LBD, cmpd/DMSO (mean) ([3]; 2 uM): 1.8 | Firefly LBD, cmpd/DMSO (mean) ([3]; 10 uM): 3.8 | Firefly LBD, cmpd/DMSO (mean) ([3]; 40 uM): 0.4 | fold induction at 0.5 µM [4, 5]: 1.1 | fold induction at 2 µM [4, 5]: 1.3 | fold induction at 10 µM [4, 5]: 1.7 | fold induction at 40 µM [4, 5]: 1.9 | fold induction at 0.5 µM [4, 6]: 1 | fold induction at 2 µM [4, 6]: 1.1 | fold induction at 10 µM [4, 6]: 1.6 | fold induction at 40 µM [4, 6]: 2.3 | fold induction at 0.5 µM [4, 7]: 1.2 | fold induction at 2 µM [4, 7]: 1.5 | fold induction at 10 µM [4, 7]: 2.5 | fold induction at 40 µM [4, 7]: 5.2

Source: US11377442B2, “Small molecule agonists and antagonists of NR2F6 activity” (ZANDER THERAPEUTICS, INC., priority 2016, dated 2022)
